# From PubChem BioAssay (NCI)
#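 Compound exposure: 48 hours, 5 concentrations, 96-well plates. Abbreviation: GI50, concentration required for 50% inhibition of growth. Definition used: TGI = concentration required for complete inhibition of growth.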
# Legend:
# Test in all cases: NCI-60 cell line screen, 48 h
# [1] = system: U251 CNS
# [2] = system: NCI-H23 lung
# [3] = system: SN12C renal
# [4] = system: KM12 colon
# [5] = system: EKVX NSCLC
# [6] = system: MALME-3M melanoma
# [7] = system: OVCAR-8 ovarian
# [8] = system: SNB-19 CNS
# [9] = system: MCF7 breast
# [10] = system: DU-145 prostate
Compound,TGI [1] [µM],TGI [2] [µM],TGI [3] [µM],TGI [4] [µM],TGI [5] [µM],TGI [6] [µM],TGI [7] [µM],TGI [8] [µM],GI50 [4] [µM],GI50 [1] [µM],GI50 [2] [µM],GI50 [9] [µM],TGI [9] [µM],GI50 [3] [µM],GI50 [10] [µM],TGI [10] [µM],GI50 [6] [µM],GI50 [7] [µM],GI50 [8] [µM]
N#CC(C(=O)CCC(=O)Nc1ccc(Cl)c(Cl)c1)c1ccccc1 (stereo unspecified),> 100,> 100,> 100,> 100,> 100,> 100,> 100,> 100,,,,,,,,,,,
O=C(Nc1nc(=S)[nH][nH]1)C(=O)C(C(=O)c1ccc2ccccc2c1)C1OC(=O)c2ccccc21 (stereo unspecified),> 100,79.9,47.2,> 100,> 100,> 100,94.4,33.3,,,,,,,,,,,
O=C(NC1C=CCC2C(=O)N(c3ccccc3)C(=O)C12)OCc1ccccc1 (stereo unspecified),> 100,> 100,> 100,> 100,> 100,,> 100,> 100,,,,,,,,,,,
CN1C(=O)C(=O)N2c3ccc(Cl)cc3C3(c4ccccc4)N=CC12O3 (stereo unspecified),30.1,15.5,13.7,13.7,27.6,47.2,12.8,26.8,,,,,,,,,,,
CCC(C)SC1SCC2C(=O)N(C)C3(CC3C)C(=O)OCC(NC(=O)c3nc4ccccc4cc3O)C(=O)NC(C)C(=O)N(C)C1C(=O)N(C)C1(CC1C)C(=O)OCC(NC(=O)c1nc3ccccc3cc1O)C(=O)NC(C)C(=O)N2C (stereo unspecified),0.0172,0.000154,9.55,0.000397,0.00538,0.000422,0.0133,0.0296,5.24e-05,,,,,,,,,,
Cc1nc(-c2nc(C)c(C(=O)NNC(=O)C[n+]3ccccc3)s2)sc1C(=O)NNC(=O)C[n+]1ccccc1,> 100,> 100,> 100,> 100,> 100,> 100,> 100,> 100,,,,,,,,,,,
CC1(C)CC(c2c[nH]c3ccccc23)=CC2=Nc3ccccc3C21O (stereo unspecified),> 100,> 100,> 100,> 100,> 100,> 100,> 100,> 100,,,,,,,,,,,
Clc1ccc2cccc3c2c1C1OC3c2ccccc21 (stereo unspecified),> 100,> 100,> 100,> 100,> 100,> 100,> 100,> 100,,,,,,,,,,,
Cc1cc(Nc2ccc(C)c(Cl)c2)n2nc(C(F)(F)F)nc2n1,> 100,> 100,52.9,> 100,,97.9,> 100,> 100,27.2,23.5,29.4,22.7,> 100,18.8,17.6,38.9,30.4,29.3,29.4
S=P1(Oc2ccccc2)NNP2(=NP(N3CC3)(N3CC3)=NP(N3CC3)(N3CC3)=N2)NN1 (stereo unspecified),> 100,> 100,> 100,> 100,> 100,> 100,> 100,> 100,,,,,,,,,,,
CCOC(=O)C1Sc2ccccc2N=C1C (stereo unspecified),> 100,> 100,> 100,> 100,> 100,> 100,> 100,> 100,,,,,,,,,,,
CC(=O)[O-].CC(=O)[O-].O=C(N/N=C/c1cc(Cl)cc(Cl)c1O)c1ccncc1.[Cu+2],> 100,> 100,> 100,> 100,> 100,> 100,> 100,> 100,,,,,,,,,,,
